Test results from ChEMBL document CHEMBL1201862, “PubChem BioAssay data set” (2004).
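Step 1: Grow cells in 96-well plates. Step 2: Expose to compound for 48 hours at 5 concentrations. Step 3: Interpolate endpoints linearly; if unreached, use highest concentration. The concentration for 50% growth inhibition is given as GI50.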 Activity calls are given as the source filed them. No stated cut-off is given here; in the data, active = GI50 up to about 1.1 µM and inactive = higher.

How the values were obtained:
Experiment in all cases: inhibition of tumour cell growth, NCI panel, 48 h
SN12C = system: SN12C
KM12 = system: KM12
SR = system: SR
SNB-19 = system: SNB-19
OVCAR-5 = system: OVCAR-5
TK-10 = system: TK-10
M14 = system: M14
NCI-H460 = system: NCI-H460
UACC-257 = system: UACC-257
A498 = system: A498
NCI-H522 = system: NCI-H522
T47D = system: T47D
HCT-116 = system: HCT-116
DU-145 = system: DU-145
CAKI-1 = system: CAKI-1
IGROV-1 = system: IGROV-1
MCF7 = system: MCF7
UACC-62 = system: UACC-62
HCT-15 = system: HCT-15
HL-60 = system: HL-60
SW-620 = system: SW-620
NCI-H226 = system: NCI-H226
SF-539 = system: SF-539
MDA-MB-435 = system: MDA-MB-435
786-0 = system: 786-0
CCRF-CEM = system: CCRF-CEM
Hs-578T = system: Hs-578T
NCI-H23 = system: NCI-H23
SF-268 = system: SF-268
HT-29 = system: HT-29
K562 = system: K562
NCI/ADR-RES = system: NCI/ADR-RES
SNB-75 = system: SNB-75
OVCAR-8 = system: OVCAR-8
HOP-62 = system: HOP-62
SK-MEL-2 = system: SK-MEL-2
MOLT-4 = system: MOLT-4
SF-295 = system: SF-295
A549 = system: A549
HCC 2998 = system: HCC 2998
ACHN = system: ACHN
MDA-MB-231 = system: MDA-MB-231
SK-MEL-5 = system: SK-MEL-5
PC-3 = system: PC-3
BT-549 = system: BT-549
COLO 205 = system: COLO 205
OVCAR-3 = system: OVCAR-3
U-251 = system: U-251
Malme-3M = system: Malme-3M
UO-31 = system: UO-31
SK-MEL-28 = system: SK-MEL-28
SK-OV-3 = system: SK-OV-3
MDA-N = system: MDA-N
LOX IMVI = system: LOX IMVI
EKVX = system: EKVX
OVCAR-4 = system: OVCAR-4
RXF 393 = system: RXF 393
RPMI-8226 = system: RPMI-8226

Measured: GI50

CN(C)CCCNC(=O)N/N=C/c1ccc([N+](=O)[O-])cc1
inactive: SN12C > 100 µM | KM12 95.3 µM | SR > 100 µM | SNB-19 > 100 µM | OVCAR-5 > 100 µM | TK-10 > 100 µM | M14 > 100 µM | NCI-H460 > 100 µM | UACC-257 > 100 µM | A498 66.4 µM | NCI-H522 > 100 µM | T47D 86.1 µM | HCT-116 > 100 µM | DU-145 > 100 µM | CAKI-1 > 100 µM | IGROV-1 > 100 µM | MCF7 53.1 µM | UACC-62 > 100 µM | HL-60 > 100 µM | SW-620 > 100 µM | NCI-H226 > 100 µM | SF-539 82.2 µM | MDA-MB-435 > 100 µM | 786-0 > 100 µM | CCRF-CEM > 100 µM | Hs-578T 46.7 µM | NCI-H23 > 100 µM | SF-268 > 100 µM | HT-29 > 100 µM | K562 > 100 µM | NCI/ADR-RES > 100 µM | SNB-75 25.4 µM | OVCAR-8 > 100 µM | HOP-62 > 100 µM | SK-MEL-2 > 100 µM | MOLT-4 > 100 µM | SF-295 78.2 µM | A549 > 100 µM | HCC 2998 > 100 µM | ACHN > 100 µM | MDA-MB-231 > 100 µM | SK-MEL-5 > 100 µM | PC-3 > 100 µM | BT-549 > 100 µM | COLO 205 > 100 µM | OVCAR-3 > 100 µM | U-251 > 100 µM | Malme-3M 40.2 µM | UO-31 > 100 µM | SK-MEL-28 > 100 µM | SK-OV-3 > 100 µM | MDA-N 82.4 µM
> 100 µM: HCT-15

O=C(c1ccccc1)N1OCCC1Nc1ccc(Br)cc1 (stereo unspecified)
active: SW-620 0.818 µM | MDA-MB-435 0.499 µM | HT-29 0.818 µM | K562 0.423 µM | ACHN 0.615 µM
inactive: SN12C > 10 µM | SNB-19 > 10 µM | OVCAR-5 > 10 µM | TK-10 > 10 µM | M14 4.99 µM | LOX IMVI > 10 µM | NCI-H460 5.45 µM | UACC-257 > 10 µM | EKVX > 10 µM | NCI-H522 > 10 µM | T47D > 10 µM | HCT-116 4.25 µM | DU-145 6.24 µM | CAKI-1 4.03 µM | IGROV-1 > 10 µM | MCF7 5.97 µM | HL-60 3.47 µM | NCI-H226 > 10 µM | SF-539 2.08 µM | 786-0 > 10 µM | OVCAR-4 > 10 µM | CCRF-CEM 3.8 µM | Hs-578T > 10 µM | NCI-H23 > 10 µM | SF-268 5.21 µM | RXF 393 > 10 µM | RPMI-8226 4.71 µM | NCI/ADR-RES 5.43 µM | SNB-75 > 10 µM | OVCAR-8 > 10 µM | HOP-62 7.57 µM | SK-MEL-2 > 10 µM | MOLT-4 4 µM | SF-295 2.08 µM | A549 3.64 µM | HCC 2998 3.85 µM | MDA-MB-231 > 10 µM | SK-MEL-5 6.97 µM | PC-3 2.04 µM | BT-549 > 10 µM | COLO 205 1.81 µM | OVCAR-3 > 10 µM | Malme-3M 3.34 µM | UO-31 1.87 µM | SK-MEL-28 > 10 µM | SK-OV-3 > 10 µM | MDA-N 3.8 µM
0.604 µM: HCT-15
